Test results published in patent US20260262643A1, “HERBICIDAL BENZOXAZINES” (FMC CORPORATION, priority 2022, published 2026).

Tests used:
[1] = system: oat, wild; test: Test C preemergence; assay type: in vivo, Avena fatua
How it was run: (§1)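 Visual injury ratings on a 0–100 scale (100 = complete control) were made against untreated controls 10 days after treatment in the greenhouse. Compounds, formulated with surfactant in non-phytotoxic solvent, were sprayed on soil preemergence or onto one- to two-leaf plants 2–10 cm tall postemergence.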

[2] = system: soybean; test: Test C preemergence; assay type: in vivo, Glycine max
How it was run: as §1

[3] = system: wheat; test: Test C postemergence; assay type: in vivo, Triticum aestivum; conditions: 10 days, 0 to 100 scale (0 no effect, 100 complete control)
How it was run: as §1

[4] = system: blackgrass; test: Test C postemergence; assay type: in vivo, Alopecurus myosuroides; conditions: 10 days, 0 to 100 scale (0 no effect, 100 complete control)
How it was run: as §1

[5] = system: galium; test: Test C postemergence; assay type: in vivo, Galium aparine; conditions: 10 days, 0 to 100 scale (0 no effect, 100 complete control)
How it was run: as §1

[6] = system: corn; test: Test C postemergence; assay type: in vivo, Zea mays; conditions: 10 days, 0 to 100 scale (0 no effect, 100 complete control)
How it was run: as §1

[7] = system: corn; test: Test C preemergence; assay type: in vivo, Zea mays
How it was run: as §1

[8] = system: blackgrass; test: Test C preemergence; assay type: in vivo, Alopecurus myosuroides
How it was run: as §1

[9] = system: horseweed; test: Test C postemergence; assay type: in vivo, Erigeron canadensis; conditions: 10 days, 0 to 100 scale (0 no effect, 100 complete control)
How it was run: as §1

[10] = system: sedge, umbrella; test: Test D flooded paddy test; assay type: in vivo, Cyperus difformis; conditions: 250 g ai/ha, applied to paddy water, visual rating after 13 to 14 days, scale 0 to 100 (0 no effect, 100 complete control)
How it was run: (§2)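 Compounds go straight into paddy water over 2-leaf plants in pots flooded to 3 cm. Greenhouse holding lasts 13 to 14 days. Injury is scored by eye against controls from 0 (none) to 100 (complete control).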

[11] = system: ducksalad; test: Test D flooded paddy test; assay type: in vivo, Heteranthera limosa; conditions: 250 g ai/ha, applied to paddy water, visual rating after 13 to 14 days, scale 0 to 100 (0 no effect, 100 complete control)
How it was run: as §2

[12] = system: ragweed; test: Test C postemergence; assay type: in vivo, Ambrosia artemisiifolia; conditions: 10 days, 0 to 100 scale (0 no effect, 100 complete control)
How it was run: as §1

[13] = system: soybean; test: Test C postemergence; assay type: in vivo, Glycine max; conditions: 10 days, 0 to 100 scale (0 no effect, 100 complete control)
How it was run: as §1

[14] = system: kochia; test: Test C postemergence; assay type: in vivo, Bassia scoparia; conditions: 10 days, 0 to 100 scale (0 no effect, 100 complete control)
How it was run: as §1

[15] = system: barnyardgrass; test: Test C postemergence; assay type: in vivo, Echinochloa crusgalli; conditions: 10 days, 0 to 100 scale (0 no effect, 100 complete control)
How it was run: as §1

[16] = system: ryegrass, Italian; test: Test C preemergence; assay type: in vivo, Lolium multiflorum
How it was run: as §1

[17] = system: pigweed, palmer; test: Test C postemergence; assay type: in vivo, Amaranthus palmeri; conditions: 10 days, 0 to 100 scale (0 no effect, 100 complete control)
How it was run: as §1

[18] = system: oat, wild; test: Test C postemergence; assay type: in vivo, Avena fatua; conditions: 10 days, 0 to 100 scale (0 no effect, 100 complete control)
How it was run: as §1

[19] = system: barnyardgrass; test: Test D flooded paddy test; assay type: in vivo, Echinochloa crus-galli; conditions: 250 g ai/ha, applied to paddy water, visual rating after 13 to 14 days, scale 0 to 100 (0 no effect, 100 complete control)
How it was run: as §2

[20] = system: pigweed, palmer; test: Test C preemergence; assay type: in vivo, Amaranthus palmeri
How it was run: as §1

[21] = system: green foxtail; test: Test C preemergence; assay type: in vivo, Setaria viridis
How it was run: as §1

[22] = system: wheat; test: Test C preemergence; assay type: in vivo, Triticum aestivum
How it was run: as §1

[23] = system: green foxtail; test: Test C postemergence; assay type: in vivo, Setaria viridis; conditions: 10 days, 0 to 100 scale (0 no effect, 100 complete control)
How it was run: as §1

[24] = system: ryegrass, Italian; test: Test C postemergence; assay type: in vivo, Lolium multiflorum; conditions: 10 days, 0 to 100 scale (0 no effect, 100 complete control)
How it was run: as §1

[25] = system: barnyardgrass; test: Test C preemergence; assay type: in vivo, Echinochloa crusgalli; conditions: Preemergence, 125 g ai/ha; 0 to 100 scale, 0 no effect, 100 complete control
How it was run: as §1

[26] = system: kochia; test: Test C preemergence; assay type: in vivo, Bassia scoparia
How it was run: as §1

[27] = system: ragweed; test: Test C preemergence; assay type: in vivo, Ambrosia artemisiifolia
How it was run: as §1

[28] = system: rice; test: Test D flooded paddy test; assay type: in vivo, Oryza sativa; conditions: 250 g ai/ha, applied to paddy water, visual rating after 13 to 14 days, scale 0 to 100 (0 no effect, 100 complete control)
How it was run: as §2

[29] = 500 g ai/ha, preemergence, 0 to 100 scale (0 no effect, 100 complete control)
[30] = Preemergence, 125 g ai/ha, 0 to 100 scale, 0 no effect, 100 complete control

CSc1ccc(-n2cnc(C(C)C)n2)cc1C(=O)N1C[C@H](C)Oc2c(Cl)cccc21 [Compound 391]
60: Plant response rating, Blackgrass ([4]; Postemergence, 125 g ai/ha) | Plant response rating, Corn ([6]; 500 g ai/ha, postemergence) | Plant response rating, Corn ([6]; Postemergence, 125 g ai/ha) | Plant response rating, Horseweed ([9]; 500 g ai/ha, postemergence) | Plant response rating, Ragweed ([12]; Postemergence, 125 g ai/ha) | Plant response rating, Barnyardgrass ([15]; 500 g ai/ha, postemergence) | Plant response rating, Barnyardgrass [25] | Ragweed plant response rating [27, 29]
70: Plant response rating, Foxtail, Green ([23]; Postemergence, 125 g ai/ha)
90: Soybean plant response rating [2, 29] | Plant response rating, Ragweed ([12]; 500 g ai/ha, postemergence) | Ryegrass, Italian plant response rating [16, 29] | Plant response rating, Pigweed, Palmer ([17]; Postemergence, 125 g ai/ha) | Plant response rating, Kochia [26, 30]
35: Plant response rating, Ducksalad (Flood) [11]
10: Plant response rating, Barnyardgrass (Flood) [19] | Plant response rating, Ragweed [27, 30]
80: Oat, Wild plant response rating [1, 29] | Plant response rating, Blackgrass ([4]; 500 g ai/ha, postemergence) | Blackgrass plant response rating [8, 29] | Plant response rating, Oat, Wild ([18]; 500 g ai/ha, postemergence) | Plant response rating, Foxtail, Green ([23]; 500 g ai/ha, postemergence)
40: Plant response rating, Wheat ([3]; 500 g ai/ha, postemergence) | Plant response rating, Barnyardgrass ([15]; Postemergence, 125 g ai/ha)
50: Plant response rating, Soybean [2, 30] | Plant response rating, Blackgrass [8, 30] | Plant response rating, Ryegrass, Italian ([24]; Postemergence, 125 g ai/ha)
45: Plant response rating, Sedge, Umbrella (Flood) [10]
20: Corn plant response rating [7, 29] | Plant response rating, Corn [7, 30] | Plant response rating, Ryegrass, Italian [16, 30]
30: Plant response rating, Oat, Wild [1, 30] | Plant response rating, Wheat ([3]; Postemergence, 125 g ai/ha) | Plant response rating, Oat, Wild ([18]; Postemergence, 125 g ai/ha) | Wheat plant response rating [22, 29]
100: Plant response rating, Galium ([5]; 500 g ai/ha, postemergence) | Plant response rating, Galium ([5]; Postemergence, 125 g ai/ha) | Plant response rating, Soybean ([13]; 500 g ai/ha, postemergence) | Plant response rating, Soybean ([13]; Postemergence, 125 g ai/ha) | Plant response rating, Kochia ([14]; 500 g ai/ha, postemergence) | Plant response rating, Kochia ([14]; Postemergence, 125 g ai/ha) | Plant response rating, Pigweed, Palmer ([17]; 500 g ai/ha, postemergence) | Pigweed, Palmer plant response rating [20, 29] | Plant response rating, Pigweed, Palmer [20, 30] | Foxtail, Green plant response rating [21, 29] | Plant response rating, Foxtail, Green [21, 30] | Plant response rating, Ryegrass, Italian ([24]; 500 g ai/ha, postemergence) | Kochia plant response rating [26, 29]
0: Plant response rating, Horseweed ([9]; Postemergence, 125 g ai/ha) | Plant response rating, Wheat [22, 30] | Plant response rating, Rice (Flood) [28]
